Data set [1] concerns the target T1, Metabotropic glutamate receptor 5 (Rattus norvegicus, UniProt P31424). Description: Displacement of [3H]M-MPEP from mGluR5 in Sprague-Dawley rat brain P2 membrane after 45 mins by beta counting. Type of data set: tissue-based.
Data set [2] has as its target Metabotropic glutamate receptor 5 (Rattus norvegicus) (UniProt P31424). Description: Binding affinity to mGluR5 ligand binding site 1 in Sprague-Dawley rat brain P2 membrane assessed per mg of protein after 45 mins by gamma counting. Type of data set: tissue-based. The note with it: tested as the 18F-labelled form.
The target is the same in data set [3]. As to the kind of experiment: Binding affinity to mGluR5 ligand binding site 2 in Sprague-Dawley rat brain P2 membrane assessed per mg of protein after 45 mins by gamma counting. Type of data set: tissue-based. The note with it: tested as the 18F-labelled form.
Data set [4] in a line: Lipophilicity, log P after 15 mins by shake-flask method. Type of data set: physicochemical. The note with it: octanol/water.
Data set [5] deals with T1, Metabotropic glutamate receptor 5. Description: Binding affinity to mGluR5 ligand binding site 2 in Sprague-Dawley rat brain P2 membrane after 45 mins by gamma counting. Type of data set: tissue-based.
The target is the same in data set [6]. Description: Binding affinity to mGluR5 ligand binding site 1 in Sprague-Dawley rat brain P2 membrane after 45 mins by gamma counting. The format is tissue-based.

Structures are written as SMILES.

T1 sequence (P31424 whole entry): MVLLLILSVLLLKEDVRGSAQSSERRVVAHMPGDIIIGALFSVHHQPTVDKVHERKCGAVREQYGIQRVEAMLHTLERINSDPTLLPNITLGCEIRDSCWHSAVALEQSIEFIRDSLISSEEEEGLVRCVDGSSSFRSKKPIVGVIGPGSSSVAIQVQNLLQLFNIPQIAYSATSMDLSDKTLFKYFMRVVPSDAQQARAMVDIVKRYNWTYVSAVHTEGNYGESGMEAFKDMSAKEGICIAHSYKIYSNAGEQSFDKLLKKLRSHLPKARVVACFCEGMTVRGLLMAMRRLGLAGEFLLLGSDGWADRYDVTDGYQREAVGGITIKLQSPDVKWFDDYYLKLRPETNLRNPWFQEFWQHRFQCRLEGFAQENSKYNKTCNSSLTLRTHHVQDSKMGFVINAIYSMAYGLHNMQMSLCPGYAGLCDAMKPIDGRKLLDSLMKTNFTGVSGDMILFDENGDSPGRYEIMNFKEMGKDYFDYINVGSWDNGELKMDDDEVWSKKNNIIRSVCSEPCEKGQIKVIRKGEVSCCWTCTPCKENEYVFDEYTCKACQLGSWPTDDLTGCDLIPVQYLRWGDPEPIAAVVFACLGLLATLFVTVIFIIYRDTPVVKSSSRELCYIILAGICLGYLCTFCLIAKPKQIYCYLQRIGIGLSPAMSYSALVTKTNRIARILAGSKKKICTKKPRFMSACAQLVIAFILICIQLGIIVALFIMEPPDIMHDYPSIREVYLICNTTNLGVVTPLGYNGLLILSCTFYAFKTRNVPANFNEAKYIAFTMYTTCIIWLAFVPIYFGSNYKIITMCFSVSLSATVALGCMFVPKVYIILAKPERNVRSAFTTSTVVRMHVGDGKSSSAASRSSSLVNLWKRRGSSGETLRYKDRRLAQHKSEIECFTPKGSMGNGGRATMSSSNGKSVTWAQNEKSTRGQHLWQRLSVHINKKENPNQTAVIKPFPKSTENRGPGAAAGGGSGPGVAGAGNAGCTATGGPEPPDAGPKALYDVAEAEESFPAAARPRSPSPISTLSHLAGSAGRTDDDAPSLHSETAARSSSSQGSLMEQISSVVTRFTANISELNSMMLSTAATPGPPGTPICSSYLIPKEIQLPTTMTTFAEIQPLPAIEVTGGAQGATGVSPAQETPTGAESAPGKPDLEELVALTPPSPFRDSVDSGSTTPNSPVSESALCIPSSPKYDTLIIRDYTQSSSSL
Metabotropic glutamate receptor 5 (Rattus norvegicus), sequence (P31424 21-1203 limits assumed): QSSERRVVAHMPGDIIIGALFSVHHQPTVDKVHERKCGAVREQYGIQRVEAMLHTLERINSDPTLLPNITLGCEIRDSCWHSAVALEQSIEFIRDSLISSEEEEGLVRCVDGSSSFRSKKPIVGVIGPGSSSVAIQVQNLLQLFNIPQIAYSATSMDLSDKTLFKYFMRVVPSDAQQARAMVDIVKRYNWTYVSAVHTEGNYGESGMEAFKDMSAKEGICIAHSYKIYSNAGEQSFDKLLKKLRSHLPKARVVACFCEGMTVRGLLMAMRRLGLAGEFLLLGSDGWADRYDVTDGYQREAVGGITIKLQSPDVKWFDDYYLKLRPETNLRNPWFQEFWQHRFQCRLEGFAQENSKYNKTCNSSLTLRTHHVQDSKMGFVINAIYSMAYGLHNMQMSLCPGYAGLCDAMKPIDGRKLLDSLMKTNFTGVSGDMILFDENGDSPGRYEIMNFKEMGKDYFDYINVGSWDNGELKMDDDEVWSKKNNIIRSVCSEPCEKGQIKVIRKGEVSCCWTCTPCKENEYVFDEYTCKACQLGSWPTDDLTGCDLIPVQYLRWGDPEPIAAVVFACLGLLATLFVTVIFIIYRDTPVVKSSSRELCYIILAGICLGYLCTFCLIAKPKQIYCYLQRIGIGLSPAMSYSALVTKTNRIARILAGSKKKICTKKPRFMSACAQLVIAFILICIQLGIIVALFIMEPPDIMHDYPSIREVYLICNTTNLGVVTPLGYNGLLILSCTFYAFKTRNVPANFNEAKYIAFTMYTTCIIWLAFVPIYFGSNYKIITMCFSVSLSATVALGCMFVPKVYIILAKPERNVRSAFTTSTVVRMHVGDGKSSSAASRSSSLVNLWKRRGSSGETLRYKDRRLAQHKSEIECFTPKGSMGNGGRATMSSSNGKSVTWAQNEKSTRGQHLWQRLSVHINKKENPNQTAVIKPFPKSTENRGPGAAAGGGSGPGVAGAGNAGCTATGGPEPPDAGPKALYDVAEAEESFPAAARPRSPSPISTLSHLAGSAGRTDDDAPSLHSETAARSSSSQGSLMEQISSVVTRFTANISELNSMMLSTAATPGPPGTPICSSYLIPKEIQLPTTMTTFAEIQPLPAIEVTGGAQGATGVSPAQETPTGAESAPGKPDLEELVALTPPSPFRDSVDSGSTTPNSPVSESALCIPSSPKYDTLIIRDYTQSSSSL

Usually Ki stands for the equilibrium dissociation constant of an inhibitor or competing ligand from its target. What is called logP is the decadic logarithm of the partition coefficient of the neutral form, usually between octanol and water. Lower therefore signals lower lipophilicity. Consider `FCCOCCO/N=C1/C=C(C#Cc2ccccn2)CCC1`, for which, in data set [1], affinity was put at a Ki of 3.8 nM. For the same molecule, the Bmax was found to be 470 fmol in data set [2] and 4 pmol in data set [3]. The same molecule displayed a logP at 0.25 h in data set [4] of 1.7.
With `Cc1cccc(C#CC2=C/C(=N/OCCOCCF)CCC2)n1`, in data set [1], the inhibition constant (Ki) worked out at 26.8 nM. This molecule also gave a logP at 0.25 h in data set [4] of 2.1.
For `CO/N=C1/C=C(C#Cc2cccc(C)n2)CCC1`, in data set [1], the affinity corresponds to a Ki of 4.4 nM. In data set [4], this molecule showed a logP at 0.25 h of 2.4.
In the case of `FCCOCO/N=C1/C=C(C#Cc2ccccn2)CCC1`, the Ki in data set [1] was 8.41 nM.
Usually Kd stands for the free concentration of one partner at which half of the binding sites on the other are occupied at equilibrium, for simple one-to-one binding. High values mean weaker binding, low ones tighter binding. Take `[18F]CCOCCO/N=C1/C=C(C#Cc2ccccn2)CCC1`: the dissociation constant (Kd) in data set [5] was 13.7 nM; in data set [6] it was 0.6 nM.
Consider `N#Cc1ccc(F)cc1O/N=C1/C=C(C#Cc2ccccn2)CCC1`, for which the affinity in data set [1], expressed as Ki, was 73.4 nM.
Take `CO/N=C1/C=C(C#Cc2ccncc2)CCC1`: the Ki in data set [1] was 54.8 nM.
On to `N#Cc1ccc(O/N=C2/C=C(C#Cc3ccccn3)CCC2)cc1F`, for which, in data set [1], the inhibitory constant (Ki) was 56.1 nM.
On the same count and under the same terms, in the case of `Cc1cccc(C#CC2=C/C(=N/Oc3cccc(F)n3)CCC2)n1` it was 46.8 nM.
Molecule `Fc1cccc(O/N=C2\C=C(C#Cc3ccccn3)CCC2)n1` displayed a Ki in data set [1] of 44 nM.
As for `FCCCOCO/N=C1/C=C(C#Cc2ccccn2)CCC1`, the inhibition constant (Ki) in data set [1] was determined as 5.42 nM.
`CO/N=C1/C=C(C#Cc2cccnc2)CCC1`: in data set [1], the inhibition constant Ki amounted to 252 nM.
Same read-out and setting: in the case of `CO/N=C1/C=C(C#Cc2ccccn2)CCC1` it was 2.2 nM.
`N#Cc1ccc(O/N=C2\C=C(C#Cc3ccccn3)CCC2)cc1F` displayed a Ki in data set [1] of 49.8 nM.
`Fc1cccc(O/N=C2/C=C(C#Cc3ccccn3)CCC2)n1` showed an inhibition constant (Ki) in data set [1] of 9.15 nM. Against the preceding molecule, the Ki is about 5.4-fold lower.
`Fc1cccnc1O/N=C1/C=C(C#Cc2ccccn2)CCC1` returned a Ki in data set [1] of 4.01 nM.

The record behind these values is ChEMBL document CHEMBL1157763, “Structure-activity relationships of fluorinated (E)-3-((6-methylpyridin-2-yl)ethynyl)cyclohex-2-enone-O-methyloxime (ABP688) derivatives and the discovery of a high affinity analogue as a potential candidate for imaging metabotropic glutamate recepors subtype 5 (mGluR5) with positron emission …” (J Med Chem, 2010).
